Values quoted from earlier work in patent publication US10246411B2, “(Z)-3,4,5-trimethoxystyrylbenzenesulfonamides as potential anticancer agents” (COUNCIL OF SCIENTIFIC & INDUSTRIAL RESEARCH, priority 2014, dated 2019).

Legend:
[1] = test system: tubulin; conditions: background, literature; cited from earlier work
[2] = test system: VCR-resistant P388 cell lines; conditions: two kinds of VCR-resistant P388 cell lines; background, literature; cited from earlier work

Row | Structure (SMILES) | inhibition of tubulin polymerization [1] | activity against VCR-resistant P388 cell lines [2]
1 | COc1cc(/C=C\c2ccc(OC)c(N)c2)cc(OC)c1 [(Z)-5-(3,5-dimethoxystyryl)-2-methoxyaniline] | five times stronger than CA-4 | –
2 | COc1ccc(/C=C\c2cc(OC)c(OC)c(OC)c2)cc1O [CA-4, Combretastatin A-4] | potent inhibitor of tubulin polymerization | –
3 | COc1ccc(S(=O)(=O)Nc2cccnc2Nc2ccc(O)cc2)cc1 [E7010, N-[2-[(4-hydroxyphenyl)amino]-3-pyridinyl]-4-methoxybenzenesulfonamide] | dose-dependent inhibition of tubulin polymerization | active
